From article PMC8161398, “Targeting Lactate Dehydrogenase A with Catechin Resensitizes SNU620/5FU Gastric Cancer Cells to 5-Fluorouracil” (International Journal of Molecular Sciences, 2021) come the findings set out here.

Assay [1] deals with T1, lactate dehydrogenase A (LDHA) (Homo sapiens, UniProt P00338).
T1 construct: purified recombinant LDHA
The experiment in a line: ITC; also purified LDHA activity assay by NADH fluorescence (IC50 =[…]). It counts as binding.

Assay [2] deals with T2, lactate dehydrogenase B (LDHB) (Homo sapiens, UniProt P07195).
T2 construct: purified recombinant LDHB
T2 sequence (P07195 2-334): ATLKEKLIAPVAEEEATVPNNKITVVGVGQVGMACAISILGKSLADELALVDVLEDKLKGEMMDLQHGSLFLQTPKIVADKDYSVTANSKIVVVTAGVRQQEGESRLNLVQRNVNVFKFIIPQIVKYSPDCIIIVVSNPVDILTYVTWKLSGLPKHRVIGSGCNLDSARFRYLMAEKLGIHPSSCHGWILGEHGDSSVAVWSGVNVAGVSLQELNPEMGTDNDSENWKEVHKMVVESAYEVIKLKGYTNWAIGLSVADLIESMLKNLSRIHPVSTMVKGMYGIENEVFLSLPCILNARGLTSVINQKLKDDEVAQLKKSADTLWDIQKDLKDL
The experiment in a line: LDHB activity assay (NADH fluorescence), dose-dependent. It counts as biochemical.

For assay [3], the target named is T1, lactate dehydrogenase A (LDHA). The experiment in a line: LDHA activity assay (NADH fluorescence), dose-dependent. Format: biochemical.

In general, Kd refers to the constant that tells how readily two partners part at equilibrium. Lower therefore signals a tighter complex. Consider `Oc1cc(O)c2c(c1)OC(c1ccc(O)c(O)c1)C(O)C2` (stereo not drawn) [CA, Catechin], for which binding in assay [1] was put at a Kd of 197 µM. `O=C(O[C@@H]1Cc2c(O)cc(O)cc2O[C@@H]1c1cc(O)c(O)c(O)c1)c1cc(O)c(O)c(O)c1` [EGCG, epigallocatechin-3-gallate]: the “LDHB activity assay (NADH fluorescence), dose-dependent” value in assay [2] is “exert inhibitory effects on both LDHA and LDHB activities”. In assay [3], the “LDHA activity assay (NADH fluorescence), dose-dependent” value is “LDHA and LDHB activities were measured with EGCG, which is known to inhibit LDHA activity”.
